Experimental findings from patent publication US7888379B2, “Thiazole derivatives and use thereof” (Merck Serono SA, priority 2005, dated 2011) are described below.

Usually IC50 stands for the midpoint of a concentration-inhibition curve.

For one experiment, the system named is Akt/PKB phosphorylation. Briefly: Cell based ELISA to monitor PI3K inhibition: Akt/PKB phosphorylation in Raw 264-7 macrophages after Complement 5a stimulation. The following applies: Mus musculus, RAW264.7, phospho Serine 473 Akt, read-out: Cell Assay (P-Akt, Elisa) IC50. On the procedure: b) Cell Based ELISA to Monitor PI3K Inhibition:
The efficacy of compounds of the invention in inhibiting the PI3K induced Akt/PKB phosphorylation may be tested in the following cell based assay.
Measurement of Akt/PKB phosphorylation in macrophages after stimulation with Complement 5a: Raw 264: Raw 264-7 macrophages (cultured in DMEM-F12 medium containing 10% Fetal Calf serum and antibiotics) are plated at 20'000 cells/well in a 96 MTP 24 h before cell stimulation. Prior to the stimulation with […] of Complement 5a during 5 minutes, Cells are serum starved for 2 h, and pretreated with inhibitors for 20 minutes. After stimulation cells are fixed in 4% formaldehyde for 20 minutes and washed 3 times in PBS containing 1% Triton X-100 (PBS/Triton). […] Next, phosphorylated Akt/PKB is detected by an overnight incubation at 4° C. with primary antibody (anti phospho Serine 473 Akt IHC, Cell Signaling) diluted 800-fold in PBS/Triton, containing 5% bovine serum albumin (BSA). After 3 washes in PBS/Triton, cells are incubated for 60 minutes with a peroxidase conjugated goat-anti-rabbit secondary antibody (1/400 dilution in PBS/Triton, containing 5% BSA), washed 3 times in PBS/Triton, and 2 times in PBS and further incubated in 100 μl of luminescent substrate reagent solution (Pierce) for 2 minutes, followed by the reading (1 s/well). […]
Background: An ELISA detects its analyte on a solid surface through an enzyme-linked reagent.

The test system of a further experiment is Neutrophils recruitment. Briefly: Thioglycollate-induced peritoneal cavity cell recruitment model. It counts as in vivo. The following applies: at 10 mg/kg after 4 hours, oral, female C3H mice, thioglycollate i.p. Here is the method: Thioglycollate-induced Peritoneal Cavity Cell Recruitment Model
The in vivo efficacy of compounds of the invention in inhibiting the migration of leukocytes upon intraperitoneal challenge of thioglycollate may be tested with the following assay.
8-10 weeks old female C3H mice are fasted during 18 hours. 15 minutes prior the intraperitoneal injection of thioglycollate (1.5%, 40 ml/kg), the mice are treated orally with Thiazoles of Formula (I). Control mice receive CMC/Tween as vehicle (10 ml/kg). The mice are then sacrificed by CO2 inhalation and the peritoneal cavity is washed two times with 5 ml of ice-cold PBS/1 mM EDTA. The ravages are done 4 hours or 48 hours after thioglycollate challenge to evaluate neutrophils or macrophages recruitment, respectively. The white blood cells (neutrophils, lymphocytes or macrophages) are counted using a Beckman Coulter® A°T 5diff™.
Dexamethasone is used as reference drug.

For experiment [1], the target named is Human recombinant GST-PI3Kγ (Homo sapiens, UniProt P48736). Description: High Throughput PI3K Lipid Kinase Assay (SPA, neomycin-coated beads). It counts as biochemical. The text has this: a) High Throughput PI3K Lipid Kinase Assay (Binding Assay):
The efficacy of compounds of the invention in inhibiting the PI3K induced-lipid phosphorylation may be tested in the following binding assay
The assay combines the scintillation proximity assay technology (SPA, Amersham) with the capacity of neomycin (a polycationic antibiotic) to bind phospholipids with high affinity and specificity. The Scintillation Proximity Assay is based on the properties of weakly emitting isotopes (such as ^3H, ^125I, ^33P). Coating SPA beads with neomycin allows the detection of phosphorylated lipid substrates after incubation with recombinant PI3K and radioactive ATP in the same well, by capturing the radioactive phospholipids to the SPA beads through their specific binding to neomycin.
To a 384 wells MTP containing 5 μl of the test compound of Formula (I) (solubilized in 6% DMSO; to yield a concentration of 100, 30, 10, 3, 1, 0.3, 0.1, 0.03, 0.01, 01 μM of the test compound), the following assay components are added. 1) 5 μl (58 ng) of Human recombinant GST-PI3Kγ (in Hepes 40 mM, pH 7.4, DTT 1 mM and ethylenglycol 5%) 2) 10 μl of lipid micelles and 3) 10 μl of Kinase buffer ([^33P]γ-ATP 45 μM/60 nCi, MgCl2 30 mM, DTT 1 mM, β-Glycerophosphate 1 mM, Na3VO4 100 μM, Na Cholate 0.3%, in Hepes 40 mM, pH 7.4). After incubation at room temperature for 180 minutes, with gentle agitation, the reaction is stopped by addition of 60 μl of a solution containing 100 μg of neomycin-coated PVT SPA beads in PBS containing ATP 10 mM and EDTA 5 mM. The assay is further incubated at room temperature for 60 minutes with gentle agitation to allow binding of phospholipids to neomycin-SPA beads. After precipitation of the neomycin-coated PVT SPA beads for 5 minutes at 1500×g, radioactive PtdIns(3)P is quantified by scintillation counting in a Wallac MicroBeta™ plate counter.
The values indicated in Table I below refer to the IC50 (nM) with respect to PI3Kγ, i.e. the amount necessary to achieve 50% inhibition of said target. Said values show a considerable inhibitory potency of thiazole compounds with regard to PI3Kγ.

SMILES strings stand for the structures.

Sequence of Human recombinant GST-PI3Kγ (P48736 whole entry): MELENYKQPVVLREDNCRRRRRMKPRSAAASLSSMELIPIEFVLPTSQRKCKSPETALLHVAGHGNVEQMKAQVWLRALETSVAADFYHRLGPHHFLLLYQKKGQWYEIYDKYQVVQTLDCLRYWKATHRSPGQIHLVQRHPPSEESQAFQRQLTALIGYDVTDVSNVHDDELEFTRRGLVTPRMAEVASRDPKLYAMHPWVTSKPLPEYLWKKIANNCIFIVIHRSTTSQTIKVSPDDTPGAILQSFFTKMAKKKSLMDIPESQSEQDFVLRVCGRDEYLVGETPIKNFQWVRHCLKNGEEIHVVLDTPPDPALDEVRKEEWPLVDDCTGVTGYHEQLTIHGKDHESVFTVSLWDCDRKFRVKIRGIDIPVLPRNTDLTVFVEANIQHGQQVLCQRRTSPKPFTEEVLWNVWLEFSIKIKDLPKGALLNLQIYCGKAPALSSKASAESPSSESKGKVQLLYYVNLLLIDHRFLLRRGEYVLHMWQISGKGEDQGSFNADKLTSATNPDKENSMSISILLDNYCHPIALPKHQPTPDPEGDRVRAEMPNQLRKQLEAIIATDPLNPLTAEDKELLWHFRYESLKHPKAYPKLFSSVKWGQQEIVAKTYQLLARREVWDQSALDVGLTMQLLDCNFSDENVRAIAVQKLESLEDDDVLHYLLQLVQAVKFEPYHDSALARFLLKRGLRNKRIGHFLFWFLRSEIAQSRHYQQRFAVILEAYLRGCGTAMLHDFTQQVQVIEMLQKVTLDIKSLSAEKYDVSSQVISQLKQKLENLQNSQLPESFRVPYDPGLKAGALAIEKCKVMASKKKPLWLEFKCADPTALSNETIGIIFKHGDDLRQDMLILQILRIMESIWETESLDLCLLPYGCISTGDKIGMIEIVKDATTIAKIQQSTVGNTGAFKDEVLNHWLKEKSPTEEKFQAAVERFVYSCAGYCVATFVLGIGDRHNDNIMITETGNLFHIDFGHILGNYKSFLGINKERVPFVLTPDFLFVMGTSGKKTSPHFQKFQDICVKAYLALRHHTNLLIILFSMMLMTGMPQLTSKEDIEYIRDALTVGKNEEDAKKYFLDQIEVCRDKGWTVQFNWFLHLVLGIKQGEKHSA

Turning to `C=CCNS(=O)(=O)c1ccc(-c2sc(NC(C)=O)nc2C)s1` [Example 12, N-(5-[5-{(allylamino)sulfonyl]-2-thienyl}-4-methyl-1,3-thiazol-2-yl) acetamide], the half-maximal inhibitory concentration (IC50) with Akt/PKB phosphorylation turned out to be 322 nM. In the experiment on Neutrophils recruitment, the “% of inhibition of Neutrophils recruitment” value was 38%.
With `CC(=O)Nc1nc(C)c(-c2ccc(C(=O)N3CCOCC3)s2)s1` [Example 5], the IC50 in experiment [1] was determined as 249 nM.
The same measure, in the same setting: the figure for `CC(=O)Nc1nc(C)c(-c2ccc(CO)s2)s1` [Example 3, N-[5-[5-(hydroxymethyl)-2-thienyl]-4-methyl-1,3-thiazol-2-yl]acetamide] is 219 nM; for `CC(=O)Nc1nc(C)c(-c2ccc(C(=O)N3CCCC(O)C3)s2)s1` (stereo not drawn) [Example 8, N-(5-{5-[(3-hydroxypiperidin-1-yl)carbonyl]-2-thienyl}-4-methyl-1,3-thiazol-2-yl)acetamide] it is 1100 nM; for `CC(=O)Nc1nc(C)c(-c2ccc(C=O)s2)s1` [Example 1, N-[5-(5-formyl-2-thienyl)-4-methyl-1,3-thiazol-2-yl]acetamide] it is 215 nM.
